According to US20230083012A1, “DIHYDROPYRIMIDINE DERIVATIVES AND USES THEREOF IN THE TREATMENT OF HBV INFECTION OR OF HBV-INDUCED DISEASES” (priority 2019, published 2023):
Where two headings read alike, the source gives them in different places.

Tests used:
[1] = Cytotoxicity determination in HepG2.2.15 cells (CCK-8 cell viability); type: cell-based; conditions: human, 6 days treatment, CCK-8 assay, highest concentration 100 uM
In short: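 HepG2.2.15 cells seeded at 5,000 cells/well in 2% FBS medium, exposed 6 days to compounds (8-point 1:3 dilutions from 100 uM, triplicate), refreshed at day 3. Viability read by CCK-8 after 2.5 h at 37° C, absorbance 450 nm with 630 nm reference; CC50 calculated.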

HBV = assay: Anti-HBV activity in HepG2.2.15 cells (HBV DNA in culture medium by qPCR); type: cell-based; conditions: Hepatitis B virus, HepG2.2.15, 144 h
In short: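 HepG2.2.15 cells in 2% FBS medium at 37 °C were treated with compounds for 6 days, with medium and compound refreshed at day 3; 1:3 dilutions, 8 concentrations in triplicate, top 10 or 1 uM. HBV DNA in culture medium quantified by qPCR to derive EC50; CC50 from parallel plates (top 100 uM).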

[2] = HepG2.2.15 cells, 6 days treatment, HBV DNA in culture medium quantified by real-time PCR, read-out: EC50

With `CCOC(=O)C1=C(CN2CC(F)(F)[C@H]3[C@@H]2CCN3S(C)(=O)=O)NC(c2nccs2)=N[C@H]1c1cccc(F)c1C` (single isomer, unassigned) [Compound 62] as the compound, how does the CC50 at 6 days [1] read?
The CC50 at 6 days was 17300 nM.

What about the EC50 (HBV; [2]) of the same compound?
Its EC50 is 12.7 nM.

With `CCOC(=O)C1=C(CN2CC(F)(F)[C@H]3[C@@H]2CCN3C(=O)NC(N)=O)NC(c2nccs2)=N[C@H]1c1cccc(F)c1C` (single isomer, unassigned) [Compound 63] as the compound, how does the CC50 at 6 days [1] read?
Its CC50 at 6 days is 25200 nM.

And the EC50 (HBV; [2])?
The EC50 was 11.8 nM.

With `CCOC(=O)C1=C(CN2CC(F)(F)[C@@H]3[C@H]2CN(C(=O)[C@H]2CC2(F)F)N3CCC(C)(C)C(=O)O)NC(c2nccs2)=N[C@H]1c1cccc(F)c1C` (single isomer, unassigned) [Compound 72A] as the compound, how does the CC50 at 6 days [1] read?
The CC50 at 6 days was 14500 nM.

What about the EC50 (HBV; [2]) of the same compound?
The EC50 was 55 nM.

With `CCOC(=O)C1=C(CN2CC(F)(F)[C@@H]3[C@H]2CN(C(=O)C2CC2)N3CCC(C)(C)C(=O)O)NC(c2nccs2)=N[C@H]1c1cccc(F)c1C` (single isomer, unassigned) [Compound 73] as the compound, how does the CC50 at 6 days [1] read?
Its CC50 at 6 days is 26000 nM.

What about the EC50 (HBV; [2]) of the same compound?
The EC50 was 17 nM.

What does the source list for `CCOC(=O)C1=C(CN2CC(F)(F)[C@@H]3[C@H]2CN(C(=O)C(C)C)N3CCC(C)(C)C(=O)O)NC(c2nccs2)=N[C@H]1c1cccc(F)c1C` (single isomer, unassigned) [Compound 74]?
CC50 at 6 days [1]: 16600 nM; EC50 (HBV; [2]): 38 nM

With `CCOC(=O)C1=C(CN2CC(F)(F)[C@@H]3[C@H]2CN(C(=O)C(F)F)N3CCC(C)(C)C(=O)O)NC(c2nccs2)=N[C@H]1c1cccc(F)c1C` (single isomer, unassigned) [Compound 75] as the compound, how does the CC50 at 6 days [1] read?
The CC50 at 6 days was 22600 nM.

And the EC50 (HBV)?
The EC50 was 40 nM.

What does the source list for `CCOC(=O)C1=C(CN2CC(F)(F)[C@@H]3[C@H]2CN(C(N)=O)N3CCC(C)(C)C(=O)O)NC(c2nccs2)=N[C@H]1c1cccc(F)c1C` (single isomer, unassigned) [Compound 76A]?
CC50 at 6 days [1]: 28200 nM; EC50 (HBV; [2]): 11 nM

Which CC50 at 6 days [1] does the source give for `CCOC(=O)C1=C(CN2CC(F)(F)[C@H]3[C@@H]2CN(C(C)=O)N3CCC(C)(C)C(=O)O)NC(c2nccs2)=N[C@H]1c1ccc(F)c(F)c1Cl` (single isomer, unassigned) [Compound 77B, 4-((cis)-2-acetyl-4-((6-(2-chloro-3,4-difluorophenyl)-5-(ethoxycarbonyl)-2-(thiazol-2-yl)-3,6-dihydropyrimidin-4-yl)methyl)-6,6-difluorohexahydropyrrolo[3,2-c]pyrazol-1(2H)-yl)-2,2-dimethylbutanoic acid] here?
The CC50 at 6 days was 17500 nM.

What about the EC50 (HBV; [2]) of the same compound?
The EC50 was 15 nM.

Which results are given for `COC(=O)C1=C(CN2CC(F)(F)[C@@H]3[C@H]2CN(C(C)=O)N3CCC(C)(C)C(=O)O)NC(c2nccs2)=N[C@H]1c1ccc(F)c(F)c1Cl` (single isomer, unassigned) [Compound 79A, 4-((cis)-2-acetyl-4-((6-(2-chloro-3,4-difluorophenyl)-5-(methoxycarbonyl)-2-(thiazol-2-yl)-3,6-dihydropyrimidin-4-yl)methyl)-6,6-difluorohexahydropyrrolo[3,2-c]pyrazol-1(2H)-yl)-2,2-dimethylbutanoic acid]?
CC50 at 6 days [1]: > 50000 nM; EC50 (HBV; [2]): 40 nM

Which results are given for `COC(=O)C1=C(CN2CC(F)(F)[C@H]3[C@@H]2CN(C(C)=O)N3CCC(C)(C)C(=O)O)NC(c2nccs2)=N[C@H]1c1ccc(F)c(F)c1Cl` (single isomer, unassigned) [Compound 79B, 4-((cis)-2-acetyl-4-((6-(2-chloro-3,4-difluorophenyl)-5-(methoxycarbonyl)-2-(thiazol-2-yl)-3,6-dihydropyrimidin-4-yl)methyl)-6,6-difluorohexahydropyrrolo[3,2-c]pyrazol-1(2H)-yl)-2,2-dimethylbutanoic acid]?
CC50 at 6 days [1]: 54900 nM; EC50 (HBV; [2]): 27 nM

Which CC50 at 6 days [1] does the source give for `CCOC(=O)C1=C(CN2CC(F)(F)[C@H]3[C@@H]2CN(C(C)=O)N3CCC(C)(C)C(=O)O)NC(c2nccs2)=N[C@@H]1c1ccc(F)c(F)c1C` (single isomer, unassigned) [Compound 80B, 4-((cis)-2-acetyl-4-((6-(3,4-difluoro-2-methylphenyl)-5-(ethoxycarbonyl)-2-(thiazol-2-yl)-3,6-dihydropyrimidin-4-yl)methyl)-6,6-difluorohexahydropyrrolo[3,2-c]pyrazol-1(2H)-yl)-2,2-dimethylbutanoic acid] here?
The CC50 at 6 days was 24100 nM.

And the EC50 (HBV; [2])?
Its EC50 is 8 nM.

With `CCOC(=O)C1=C(CN2CC(F)(F)[C@H]3[C@@H]2CN(C(C)=O)N3CCC(C)(C)C(=O)O)NC(c2nccs2)=N[C@H]1c1cccc(F)c1Cl` (single isomer, unassigned) [Compound 81B, 4-((cis)-2-acetyl-4-((6-(2-chloro-3-fluorophenyl)-5-(ethoxycarbonyl)-2-(thiazol-2-yl)-3,6-dihydropyrimidin-4-yl)methyl)-6,6-difluorohexahydropyrrolo[3,2-c]pyrazol-1(2H)-yl)-2,2-dimethylbutanoic acid] as the compound, how does the CC50 at 6 days [1] read?
The CC50 at 6 days was 35900 nM.

What about the EC50 (HBV; [2]) of the same compound?
Its EC50 is 13 nM.

With `COC(=O)C1=C(CN2CC(F)(F)[C@H]3[C@@H]2CN(C(C)=O)N3CCC(C)(C)C(=O)O)NC(c2nccs2)=N[C@H]1c1ccc(F)c(F)c1C` (single isomer, unassigned) [Compound 82B, 4-((cis)-2-acetyl-4-((6-(3,4-difluoro-2-methylphenyl)-5-(methoxycarbonyl)-2-(thiazol-2-yl)-3,6-dihydropyrimidin-4-yl)methyl)-6,6-difluorohexahydropyrrolo[3,2-c]pyrazol-1(2H)-yl)-2,2-dimethylbutanoic acid] as the compound, how does the CC50 at 6 days [1] read?
Its CC50 at 6 days is 46900 nM.

And the EC50 (HBV; [2])?
The EC50 was 37 nM.

With `CCOC(=O)C1=C(CN2CC(F)(F)[C@@H]3[C@H]2CN(C(C)=O)N3CCC(C)(C)C(=O)O)NC(c2nccs2)=N[C@H]1c1ccc(F)c(F)c1F` (single isomer, unassigned) [Compound 83A, 4-((cis)-2-acetyl-4-((5-(ethoxycarbonyl)-2-(thiazol-2-yl)-6-(2,3,4-trifluorophenyl)-3,6-dihydropyrimidin-4-yl)methyl)-6,6-difluorohexahydropyrrolo[3,2-c]pyrazol-1(2H)-yl)-2,2-dimethylbutanoic acid] as the compound, how does the CC50 at 6 days [1] read?
The CC50 at 6 days was 73500 nM.

What about the EC50 (HBV; [2]) of the same compound?
Its EC50 is 46 nM.

For `CCOC(=O)C1=C(CN2CC(F)(F)[C@H]3[C@@H]2CN(C(C)=O)N3CCC(C)(C)C(=O)O)NC(c2nccs2)=N[C@H]1c1ccc(F)c(F)c1F` (single isomer, unassigned) [Compound 83B, 4-((cis)-2-acetyl-4-((5-(ethoxycarbonyl)-2-(thiazol-2-yl)-6-(2,3,4-trifluorophenyl)-3,6-dihydropyrimidin-4-yl)methyl)-6,6-difluorohexahydropyrrolo[3,2-c]pyrazol-1(2H)-yl)-2,2-dimethylbutanoic acid], which CC50 at 6 days [1] is on record?
Its CC50 at 6 days is 39000 nM.

And the EC50 (HBV; [2])?
The EC50 was 35 nM.

With `COC(=O)C1=C(CN2CC(F)(F)[C@@H]3[C@H]2CN(C(C)=O)N3CCC(C)(C)C(=O)O)NC(c2nccs2)=N[C@H]1c1cccc(F)c1Cl` (single isomer, unassigned) [Compound 84A] as the compound, how does the CC50 at 6 days [1] read?
The CC50 at 6 days was greater than 100000 nM.

And the EC50 (HBV; [2])?
Its EC50 is 52 nM.

For `CCOC(=O)C1=C(CN2CC(F)(F)[C@@H]3[C@H]2CN(C(=O)C2(F)CC2)N3CCC(C)(C)C(=O)O)NC(c2nccs2)=N[C@H]1c1cccc(F)c1C` (single isomer, unassigned) [Compound 85], which CC50 at 6 days [1] is on record?
The CC50 at 6 days was 22600 nM.

And the EC50 (HBV; [2])?
The EC50 was 69 nM.

Which results are given for `CCOC(=O)C1=C(CN2CC(F)(F)[C@@H]3[C@H]2CN(C=O)N3CCC(C)(C)C(=O)O)NC(c2nccs2)=N[C@H]1c1cccc(F)c1C` (single isomer, unassigned) [Compound 86]?
CC50 at 6 days [1]: > 50000 nM; EC50 (HBV; [2]): 130 nM

For `CCOC(=O)C1=C(CN2CC(F)(F)[C@H]3[C@@H]2C(=O)N(CC(C)(C)C(=O)O)N3C)NC(c2nccs2)=N[C@H]1c1cccc(F)c1C` (single isomer, unassigned) [Compound 88], which CC50 at 6 days [1] is on record?
The CC50 at 6 days was 60000 nM.

What about the EC50 (HBV; [2]) of the same compound?
The EC50 was 1.5 nM.

Which CC50 at 6 days [1] does the source give for `CCOC(=O)C1=C(CN2CC(F)(F)[C@@H]3[C@H]2CN(C(C)C)N3CCC(C)(C)C(=O)O)NC(c2nccs2)=N[C@H]1c1cccc(F)c1C` (single isomer, unassigned) [Compound 89] here?
The CC50 at 6 days was greater than 3120 nM.

What about the EC50 (HBV; [2]) of the same compound?
Its EC50 is 60 nM.

Which results are given for `CCOC(=O)C1=C(CN2CC(F)(F)[C@@H]3[C@H]2CN(CC)N3CCC(C)(C)C(=O)O)NC(c2nccs2)=N[C@H]1c1cccc(F)c1C` (single isomer, unassigned) [Compound 90]?
CC50 at 6 days [1]: 19200 nM; EC50 (HBV; [2]): 20.5 nM

What does the source list for `CCOC(=O)C1=C(CN2CC(F)(F)[C@@H]3[C@H]2CN(CC(F)F)N3CCC(C)(C)C(=O)O)NC(c2nccs2)=N[C@H]1c1cccc(F)c1C` (single isomer, unassigned) [Compound 91]?
CC50 at 6 days [1]: 8800 nM; EC50 (HBV; [2]): 71 nM

What does the source list for `CCOC(=O)C1=C(CN2CC(F)(F)[C@@H]3[C@H]2CN(CC(F)(F)F)N3CCC(C)(C)C(=O)O)NC(c2nccs2)=N[C@H]1c1cccc(F)c1C` (single isomer, unassigned) [Compound 92]?
CC50 at 6 days [1]: 5000 nM; EC50 (HBV; [2]): 61 nM

Which results are given for `CCOC(=O)C1=C(CN2CC(F)(F)[C@@H]3[C@H]2CN(C)N3CCC(C)(C)C(=O)O)NC(c2nccs2)=N[C@@H]1c1ccc(F)c(F)c1C` (single isomer, unassigned) [Compound 93, 4-(4-((6-(3,4-difluoro-2-methylphenyl)-5-(ethoxycarbonyl)-2-(thiazol-2-yl)-3,6-dihydropyrimidin-4-yl)methyl)-6,6-difluoro-2-methylhexahydropyrrolo[3,2-c]pyrazol-1(2H)-yl)-2, ethylbutanoic acid]?
CC50 at 6 days [1]: 5400 nM; EC50 (HBV; [2]): 12 nM

Which CC50 at 6 days [1] does the source give for `COC(=O)C1=C(CN2CC(F)(F)[C@@H]3[C@H]2CN(C)N3CCC(C)(C)C(=O)O)NC(c2nccs2)=N[C@H]1c1ccc(F)cc1Cl` (single isomer, unassigned) [Compound 94] here?
Its CC50 at 6 days is 25000 nM.

What about the EC50 (HBV; [2]) of the same compound?
The EC50 was 14 nM.
